Experimental data taken from patent publication US4452782A, “Pentadecapeptide” (Hoffmann-La Roche Inc., priority 1979, dated 1984).

What was measured:
[1] = tested on: Ps. aeruginosa; assay: Protective activity against lethal infection in mice immunosuppressed with 5-fluorouracil; assay type: in vivo; settings: 5-fluorouracil 25 mg/kg/day × 10 i.p. alone; 4 × 10^4 i.v.
Description: (§1) The effect was further extended against microbial infections in mice immunosuppressed by treatment of a cytostatic. Mice pretreated daily for 10 times with 5-fluorouracil (25 mg/kg/day, i.p.) were infected by either Ps. aeruginosa or C. albicans and the survivals were recorded on day 15.
(§2) C. albicans and Ps. aeruginosa were infected intravenously with 1 ×

[2] = tested on: C. albicans; assay: as above; assay type: in vivo; settings: 5-fluorouracil 25 mg/kg/day × 10 i.p. alone; 1 × 10^5 i.v.
Description: as §1, §2

[3] = tested on: Lewis lung carcinoma; assay: Survival of mice with Lewis lung carcinoma in combination with cyclophosphamide and surgery (Table 8); assay type: in vivo; settings: cyclophosphamide 50 mg/kg i.p. × 1 alone
Description: (§3) Lewis lung carcinoma (1×10^6) was implanted into footpad and at day 10 the advanced tumor was excised by amputation of the leg with the tumor developed. Then the mice were treated with cyclophosphamide (50 mg/kg, i.p.) 24 hrs later and at day 27 the dry weight of the tumor metastasized to lung was measured.
On the other hand, the effect of the peptide on survival of the mice, which were amputated the advanced tumor and treated with cyclophosphamide, was examined. The experimental conditions were identical to the above experiment except that the advanced tumor was excised at day 12 and the mice were treated with cyclophosphamide at day 13.

[4] = tested on: Lewis lung carcinoma; assay: Suppression of growth of Lewis lung carcinoma metastasized to lung after amputation and cyclophosphamide (Table 7); assay type: in vivo, mice; settings: cyclophosphamide 50 mg/kg i.p. × 1 alone after amputation; day 27
Description: The major problem in the treatment of cancer patient after surgical elimination of tumor is the prevention of metastasis of the tumor.
as §3

Row | SMILES | Suppressive activity against lethal infection (survivals at day 15) [1] | Suppressive activity against lethal infection (survivals at day 15) [2] | Survivals at day 100 [3] | Mean survival days ([3]; days after tumor implantation) | dry weight of the tumor metastasized (mg ± S.D.) [4]
1 | O=c1[nH]cc(F)c(=O)[nH]1 [5-fluorouracil] | 2/7 | 5/35 |  |  | 
2 | O=P1(N(CCCl)CCCl)NCCCO1 (centres unmarked) [Cyclophosphamide] |  |  | 2/12 | 32.6 ± 3.2 days | 45.9 ± 30.6 mg
